Like-named read-outs stand apart in the source and are kept apart here. One block for each compound: values may come before it.
Columns and labels:
[1] = s.c. injection of C-peptide plus soluble insulin (CI-day) vs insulin plus diluent (I-day), glucose clamp, Type 1 diabetic patients; format: in vivo, human
Experimental: Apart from insulin they had no other medication. All patients received injections of soluble insulin before meals and intermediate-acting insulin at bedtime. Six patients had simplex retinopathy and two of these (nos. 4 and 8) also had microalbuminuaria. All subjects were informed of the purpose, nature and possible risks before giving their consent to participate in the study, which was approved by the local Ethics Committee. The experiments were carried out on two days separated by at least one week. The patients were admitted to the hospital at 8 p.m. in the evening before the study day. They received their last dose of insulin at 4-6 p.m. In order to clear the subcutaneous depots of insulin no intermediate-acting insulin was given at bedtime. Instead, an intravenous infusion of insulin was started at the time of admission. […] On the study day the investigation started at 7.30 a.m. after an overnight fast. A short teflon catheter was inserted into an antecubital vein for blood sampling. […] The injections were given with an automatic injection device (which allowed standardization of speed and depth) approximately 100 mm lateral to the umbilicus into the middle of the subcutaneous tissue, the depth of which was predetermined with ultrasound. After the injections plasma glucose was allowed to decrease to 3.5 mmol/l, whereafter it was maintained at 3.5-5 mmol/l using a variable glucose infusion (DeFronzo R, Tobin J, Andres R, American Journal of Physiology 237:[…]-[…], 1979) The patients were followed for 6 hours. Blood samples for the determination of plasma glucose, free insulin, C-peptide, FFA and glucagon were taken at timed intervals. […] Plasma free insulin was determined by radioimmunoassay after immediate polyethylene glycol precipitation (Arnquist H, Olsson P, von Schenk H, Clinical Chemistry 33:93-96, 1987). C-peptide (Heding L, Diabetologia 11:541-548, 1975) and glucagon were also analyzed by radioimmunoassay using a commercially available kit (MILAB, Malmö, Sweden). Plasma […], Greenberg […], Goetz F, Metabolism 35:122-125, 1986) was determined by a fluorometric method. Standard statistical methods including Wilcoxon's nonparametric test, Student's paired t-test and linear regression analyses were performed when applicable. Results are presented as mean values±SEM. […] The areas under the plasma insulin, and free fatty acid concentration curves were computed by trapezoidal integration.

[2] = target: T1, insulin-insulin interaction (Homo sapiens, UniProt P01308); assay: SPR: effect of substances mixed with insulin in solution on insulin-insulin interaction; format: binding; conditions: for effect of additive on insulin-insulin interaction: pH 5, insulin 10 μM, zinc sulfate in molar ratios higher than insulin, EDTA up to 10 μM
T1 construct: 28; purchased Novo Nordisk A/S, Denmark Actrapid
Experimental: BiacorA Biacore 3000 instrument was employed for the interaction measurements based on surface plasmon resonance (SPR). Interaction analyses were performed at 25° C. in 10 mM Na-citrate buffers pH 3, 4, 5, 10 mM bis-Tris, pH 6, and 10 mM Tris/HC1, pH 7, all buffers containing 100 mM NaCl and 0.005% 5P20. Flow rates for the binding analyses were kept at 20 μl/min. […] Insulin was immobilized on a carboxymethyl-modified dextran surface via both amine and carboxyl coupling, using the surface thiol method, in two different lanes of Biacore CM5 chips. The immobilization was carried out according to the procedure described in the kits. In brief, the sensor chip surface was first washed with 4 M LiCl/HBS for 1 min and then with 0.2% SP20/HBS for 1 mM. The surface was activated according to standard procedure with an injection of 0.05 M NHS/0.2 M EDC for 7 min. Desalted insulin solution was diluted in acetate buffer, pH 4.5, to 20 μg/ml and injected at 50/min for different time intervals. For surface thiol coupling, the surface was first activated with 0.05 M NHS/0.2 M EDC for 2 min followed by a 3 min injection of 40 mM cystamine dihydrochloride and then 0.1 M DTE for 3 min. […] The mixture was incubated for 10 mM at room temperature and excess PDEA was removed on a NAP-10 column. The purified PDEA ligand was injected for 7 min, soon after DTE, and finally the surface was washed with 20 mM PDEA in 0.1 M sodium acetate, 1.0 M NaCl. For quick regeneration of the surface, 2 M guanidine-HC1, pH 6.4, was employed. For controls, lanes activated and deactivated according to the standard procedures were used. For subtraction of noise from the data, running buffer only was injected to all surfaces. For the C-terminal attachment, surface-thiol coupling to 4000-5000 RU was used, and for N-terminal attachment, amine coupling to 800-1000 RU as achieved on different CM5 chips. However for kinetic analysis immobilization was carried out in a controlled condition and around 1000 RU for C-terminal and 400 RU for N-terminal coupling were immobilized. A surface activated with EDC/NHS and deactivated with ethanolamine was used as a control surface for N-terminally immobilized insulin and a surface treated with EDC/NHS, cysteine/DTE and finally deactivated with PDEA-NaCl was used as a control for C-terminally immobilized insulin. Biacore data were analyzed with Bia-evaluation software 4.1. All calculations based on numerical approaches, including simulations and global curve fitting for estimates of active concentrations, were performed with IGOR Pro (version 4.01.A, WaveMetrics, Inc.). However, C-peptide, mixed with insulin in solution, influences the insulin-insulin monomer interactions measured above. […] This elevated interaction can be seen at different pH from 3-7. The phenomenon of more pronounced interaction was clearer when concentrations higher than 0.5 μM were used then below 0.5 μM. […] All concentrations were run in triplicates and in random order.

[3] = in vivo; cited from earlier work
insulin = target: T2, insulin (Homo sapiens, UniProt P01308); assay: Non-denaturing nano-electrospray mass spectrometry of insulin, C-peptide and control peptides; format: binding; conditions: ESI-MS
T2 construct: 28; purchased Novo Nordisk A/S, Denmark Actrapid
Experimental: For mass spectrometric analysis, preparation of concentrated insulin stock solution was performed essentially as described [Nettleton et al, 2000, Biophys J. 79:1053]. Briefly, insulin (NovoNordisk A/S, Denmark) was concentrated to 100 μM using ultrafiltration spin-filters (NanoSep, PallGellman, MWCO: 3000 Da). This stock solution was then buffer-exchanged to water, pH 5 (HCl), by extended dialysis. For all experiments, insulin and C-peptide stock solutions were diluted in water-HC1 (pH 5) to reach the indicated concentrations. C-peptide was prepared as a 746 μM stock solution in water and all control peptides were prepared similarly.
Mass spectrometry data were recorded with a QTOF Ultima API instrument (Waters, Milford, Mass.) operated in the positive ion mode. Sample solutions were analyzed by nanoelectrospray from conductive borosilicate glass capillaries (Proxeon Biosystems A/S, Odense, Denmark). Instrument settings were not modified for the observation of non-covalent complexes, other than that the “cone” and the “RF-lens” settings were set to 90 and 50 V, respectively.
The binding between insulin and C-peptide in the gas-phase was studied by non-denaturing electrospray mass spectrometry using a method analogous to that of Nettleton et al [Nettleton et al, 2000, Biophys J. 79:1053].

immobilized insulin = target: T3, immobilized insulin (Homo sapiens, UniProt P01308); assay: SPR (Biacore 3000) insulin-insulin interaction, free insulin over chip-immobilized insulin; format: binding; conditions: for Kd: C-terminally immobilized insulin, global fit, analyte with two binding sites competing for one site, insulin 0.25-10 μM
T3 construct: 28; purchased Novo Nordisk A/S, Denmark Actrapid
Experimental: BiacorA Biacore 3000 instrument was employed for the interaction measurements based on surface plasmon resonance (SPR). Interaction analyses were performed at 25° C. in 10 mM Na-citrate buffers pH 3, 4, 5, 10 mM bis-Tris, pH 6, and 10 mM Tris/HC1, pH 7, all buffers containing 100 mM NaCl and 0.005% 5P20. Flow rates for the binding analyses were kept at 20 μl/min. Insulin was desalted and buffer was exchanged on NAP 10 columns from Amersham Biosciences.
Working insulin solution was prepared after removing the excess of zinc sulfate, meta-cresol and other salts from the original solution by passing through a NAP 10 column in the desired buffer for experiments. The desalted insulin was diluted to 1 mM, aliquoted and stored at −20° C.
Insulin was immobilized on a carboxymethyl-modified dextran surface via both amine and carboxyl coupling, using the surface thiol method, in two different lanes of Biacore CM5 chips. The immobilization was carried out according to the procedure described in the kits. In brief, the sensor chip surface was first washed with 4 M LiCl/HBS for 1 min and then with 0.2% SP20/HBS for 1 mM. The surface was activated according to standard procedure with an injection of 0.05 M NHS/0.2 M EDC for 7 min. Desalted insulin solution was diluted in acetate buffer, pH 4.5, to 20 μg/ml and injected at 50/min for different time intervals. For surface thiol coupling, the surface was first activated with 0.05 M NHS/0.2 M EDC for 2 min followed by a 3 min injection of 40 mM cystamine dihydrochloride and then 0.1 M DTE for 3 min. At the same time, 2-(2-pyridinyldithio)ethaneamine hydrochloride (PDEA) insulin was prepared by dissolving 0.5 mg insulin in 0.5 ml 0.1 M MES, adding to it 0.25 ml of (15 mg/ml) PDEA in 0.1 M MES, pH 5, and 25 μl 0.4M EDC. The mixture was incubated for 10 mM at room temperature and excess PDEA was removed on a NAP-10 column. The purified PDEA ligand was injected for 7 min, soon after DTE, and finally the surface was washed with 20 mM PDEA in 0.1 M sodium acetate, 1.0 M NaCl. For quick regeneration of the surface, 2 M guanidine-HC1, pH 6.4, was employed. For controls, lanes activated and deactivated according to the standard procedures were used. For subtraction of noise from the data, running buffer only was injected to all surfaces.
For the C-terminal attachment, surface-thiol coupling to 4000-5000 RU was used, and for N-terminal attachment, amine coupling to 800-1000 RU as achieved on different CM5 chips. However for kinetic analysis immobilization was carried out in a controlled condition and around 1000 RU for C-terminal and 400 RU for N-terminal coupling were immobilized. […]
Biacore data were analyzed with Bia-evaluation software 4.1. […]

T3 sequence (P01308 25-54 limits assumed): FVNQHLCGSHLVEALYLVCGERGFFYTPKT
T3 sequence (P01308 90-110 limits assumed): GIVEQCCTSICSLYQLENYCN
T1 sequence (P01308 25-54 limits assumed): as the sequence (P01308 25-54 limits assumed) above
T2 sequence (P01308 25-54 limits assumed): as above

Compound: I: soluble insulin (Humulin; 10U) and C-peptide diluent, injected s.c.
AUC for plasma FFA concentration 0-360 min ([1]; 0-360 min): 129 ± 17 mmol·min/L | plasma FFA 10 min after the injections ([1]; 30 min after cessation of i.v. insulin infusion): 0.80 ± 0.11 mmol/L | AUC for plasma FFA concentration 0-180 min ([1]; after correction for the plasma free insulin area, p<0.01): 55.6 ± 5.1 mmol·min/L | area under the plasma IRI curve (0-360 min) ([1]; human, in vivo): 5847±430 mU/l×min | plasma glucose at the beginning of the glucose infusions ([1]; human, in vivo): 3.5 ± 0.05 mmol/L | plasma C-peptide at 360 min ([1]; mean±SEM): 0.10 ± 0.02 nmol/L | patients requiring intravenous infusion of glucose to avoid hypoglycemia ([1]; nine patients): 7 of 9 | time of peak plasma insulin (IRI) ([1]; s.c. insulin 10 U): 88 ± 11 min | duration of glucose infusion ([1]; variable glucose infusion to avoid hypoglycemia): 124 ± 28 min

Compound: O=S(=O)([O-])[O-].[Zn+2] [zinc sulfate]
effect of additive on insulin-insulin interaction [2]: diminished insulin interaction

stimulation of SPR-measurable binding in mixture with insulin in the flow-through solution ([2]; Example 10): stimulated SPR-measurable binding
Compound: C-terminal pentapeptide: pentapeptide EGSLQ (SEQ ID NO. 2), residues 27-31 of native human C-peptide (Pentapeptide of C-peptide)
enhancement of insulin-insulin binding relative to native C-peptide ([2]; 1:1 molar ratio (FIG. 15)): as equally effective as the native C-peptide

Compound: Insulin Glulisine
action / pharmacokinetic profile compared with other rapid acting analogues [3]: pharmacokinetic profile similar to Lispro and Aspart

effect of additive on insulin-insulin interaction [2]: promoted insulin-insulin interaction
Compound: O=C(O)CN(CCN(CC(=O)O)CC(=O)O)CC(=O)O [EDTA]

Compound: Lispro
effective duration [3]: 4 to 6 h | onset of action [3]: 5 to 15 min | peak action [3]: 0.5 to 1.5 h

Compound: regular insulin: regular human insulin
effective duration [3]: 8 to 10 h | onset of action [3]: 30 to 60 min | peak action [3]: 2 to 3 h

insulin concentration at which dimerization is detectable (insulin): 3 µM | insulin concentration at which higher polymers up to hexamers are detectable (insulin): 30 µM | Kd (immobilized insulin; read-out: dissociation constant KD1 (slow off rate)): 2.71 µM | Kd (immobilized insulin; read-out: dissociation constant KD2 (rapid off rate)): 4.65 µM | lowest insulin solution concentration at which binding is noticeable (immobilized insulin; pH 5): 0.05 µM | pH of highest (maximum) insulin-insulin binding interaction (immobilized insulin; pH range 3-7): 5
Compound: Human insulin

Compound: zinc insulin (Lente): human insulin preparation, zinc insulin, with extended duration
effective duration [3]: 12 to 20 h | onset of action [3]: 120 to 240 min | peak action [3]: 4 to 10 h
